Measurements published in US20250268903A1, “RXFP1 AGONISTS” (BRISTOL-MYERS SQUIBB COMPANY, priority 2021, published 2025).

Biological target: T1, human RXFP1 (Homo sapiens, UniProt Q9HBX9)
T1 construct: expressed in transfected cells
T1 sequence (Q9HBX9 1-757): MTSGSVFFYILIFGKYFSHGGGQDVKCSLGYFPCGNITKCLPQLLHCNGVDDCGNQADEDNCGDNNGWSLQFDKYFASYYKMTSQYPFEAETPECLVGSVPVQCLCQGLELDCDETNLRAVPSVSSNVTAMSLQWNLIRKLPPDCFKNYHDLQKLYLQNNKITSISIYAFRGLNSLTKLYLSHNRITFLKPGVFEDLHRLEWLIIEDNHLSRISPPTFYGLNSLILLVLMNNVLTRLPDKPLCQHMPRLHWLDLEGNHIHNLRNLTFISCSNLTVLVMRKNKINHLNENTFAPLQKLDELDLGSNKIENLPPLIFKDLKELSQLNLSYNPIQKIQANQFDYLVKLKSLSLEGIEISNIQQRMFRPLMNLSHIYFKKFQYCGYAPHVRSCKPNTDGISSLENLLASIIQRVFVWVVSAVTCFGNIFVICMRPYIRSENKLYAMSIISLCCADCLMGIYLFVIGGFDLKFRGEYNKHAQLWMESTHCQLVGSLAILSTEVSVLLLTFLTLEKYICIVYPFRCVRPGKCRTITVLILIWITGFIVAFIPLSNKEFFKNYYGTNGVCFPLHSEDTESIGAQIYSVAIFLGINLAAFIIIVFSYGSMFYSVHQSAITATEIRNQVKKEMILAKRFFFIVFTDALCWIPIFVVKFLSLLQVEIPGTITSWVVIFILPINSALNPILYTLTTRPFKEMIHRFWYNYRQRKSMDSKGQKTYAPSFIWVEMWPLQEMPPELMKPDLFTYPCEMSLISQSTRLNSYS
Test: hRXFP1 HEK293 cAMP assay (HTRF)
Format: cell-based
Conditions: HEK293 cells stably expressing human RXFP1, 30 min at room temperature
Method in brief: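 Intracellular cAMP was read by HTRF, with potency fitted to a 4-parameter logistic curve. Compound exposure (0.010 nM–50 μM final, 2% DMSO) lasted 30 min at room temperature. Cells were hRXFP1-HEK293 at 1500 per well in IBMX-containing (0.5 mM) HEPES-buffered HBSS.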

Compound | EC50 [nM]
COc1ccc(CCCO)cc1C(=O)N[C@H]1[C@@H](C(=O)Nc2ccc(F)c(C(F)(F)F)c2)[C@H]2CC[C@@H]1/C2=C\C(C)C [Example 157, (1R,2S,3R,4R,Z)—N-(4-fluoro-3-(trifluoromethyl)phenyl)-3-(5-(3-hydroxypropyl)-2-methoxybenzamido)-7-(2-methylpropylidene) bicyclo[2.2.1]heptane-2-carboxamide] | 54
COc1ccc(CCC(C)(C)O)cc1C(=O)NC1C2CCC(/C2=C/C2CCCOC2)[C@@H]1C(=O)Nc1ccc(F)c(C(F)(F)F)c1 (single isomer, unassigned) [Example 172, (7Z)-N-[4-fluoro-3-(trifluoromethyl)phe-nyl]-3-[5-(3-hydroxy-3-methylbutyl)-2-methoxybenzamido]-7-[(oxan-3-yl)methylidene]bicy-clo[2.2.1]heptane-2-carboxamide] | 39
COc1ccc(S(=O)(=O)N2CCN3C(=O)CCC3C2)cc1C(=O)N[C@H]1[C@@H](C(=O)Nc2ccc(F)c(C(F)(F)F)c2)[C@H]2CC[C@@H]1/C2=C\C(F)(F)F (stereo partly drawn) [Example 210, (1R,2S,3R,4R,7Z)-N-[4-fluoro-3-(trifluoromethyl)phenyl]-3-[2-methoxy-5-({6-oxo-octabydropyrrolo [1,2-a]piperazin-2-yl}sulfonyl)benzamido]-7-(2,2,2-trifluoroethylidene) bicyclo[2.2.1] heptane-2-carboxamide] | 237
COc1ccc(S(=O)(=O)N2CCS(=O)(=O)CC2)cc1C(=O)NC1C2CCC(/C2=C/C(F)(F)F)[C@@H]1C(=O)Nc1ccc(F)c(C(F)(F)F)c1 (stereo partly drawn) [Example 202, (2S,3R,7Z)-3-{5-[(1,1-dioxo-1λ^6-thiomorpholin-4-yl)sulfonyl]-2-methoxybenzamido}-N-[4-fluoro-3-(trifluoromethyl)phe-nyl]-7-(2,2,2-trifluoroethylidene)bi-cyclo[2.2.1]heptane-2-carboxamide] | 186
(1R,4R,7Z)-7-(2- cyclobutylethylidene)- N-[4-fluoro-3- (trifluoromethyl) phenyl]-3-[5-(3- hydroxy-3- methylbutyl)-2- methoxybenzamido] bicyclo[2.2.1] heptane- 2-carboxamide [Example 265] | 66.2
COc1ccc(C2CC(CO)C2)cc1C(=O)N[C@H]1[C@@H](C(=O)Nc2ccc(F)c(C(F)(F)F)c2)[C@H]2CC[C@@H]1/C2=C\C1CC1 (stereo partly drawn) [Example 330, (1R,2S,3R,4R,7Z)-7-(cyclopropylmethylidene)-N-[4-fluoro-3-(trifluoromethyl)phenyl]-3-{5-[3-(hydroxymethyl)cyclobutyl]-2-methoxybenzamido} bicyclo[2.2.1]heptane-2-carboxamide] | 79
COc1ccc(COC2CCC(OCc3ccccc3)CC2)cc1C(=O)N[C@@H]1C2CCC(/C2=C/C2CC2)[C@@H]1C(=O)Nc1ccc(F)c(C(F)(F)F)c1 (single isomer, unassigned) [Example 23] | 993
(1R,4R,7Z)-7-(2- cyclobutylethylidene)- N-[4-fluoro-3- (trifluoromethyl) phenyl]-3-[5-(3- hydroxy-3- methylbutyl)-2- methoxybenzamido] bicyclo[2.2.1]heptane- 2-carboxamide [Example 262] | 197
COc1ccc(C23CCC(C(C)(C)O)(CC2)CC3)cc1C(=O)N[C@H]1[C@@H](C(=O)Nc2ccc(F)c(C(F)(F)F)c2)[C@H]2CC[C@@H]1/C2=C\C1CC1 (single isomer, unassigned) [Example 276] | 2600
COc1ccc(C2CC2C(=O)N2CCC(O)CC2)cc1C(=O)N[C@H]1[C@@H](C(=O)Nc2ccc(F)c(C(F)(F)F)c2)[C@H]2CC[C@@H]1/C2=C\C(F)(F)F (single isomer, unassigned) [Example 325] | 2940
CCCC/C=C1\C2CCC1[C@H](C(=O)Nc1ccc(F)c(C(F)(F)F)c1)[C@@H]2NC(=O)c1cc(CCC(C)(C)O)ccc1OC (stereo partly drawn) [Example 89, (2S,3R,7Z)-N-[4-fluoro-3-(trifluoromethyl)phe-nyl]-3-[5-(3-hydroxy-3-methylbutyl)-2-methoxybenzamido]-7-pentylidenebicyclo [2.2.1]heptane-2-carboxamide] | 45
COc1ccc(CCCCO)cc1C(=O)N[C@@H]1C2CCC(/C2=C/C2CCC2)[C@@H]1C(=O)Nc1ccc(F)c(C(F)(F)F)c1 (stereo partly drawn) [Example 96, (2S,3R,7Z)-7-(cyclobutylmethyli-dene)-N-[4-fluoro-3-(trifluoromethyl)phe-nyl]-3-[5-(4-hydroxybutyl)-2-methoxybenzamido] bicyclo[2.2.1]heptane-2-carboxamide] | 46
COc1ccc(CN2C(=O)NC3(CCCC3)C2=O)cc1C(=O)N[C@@H]1C2CCC(/C2=C/C2CC2)[C@@H]1C(=O)Nc1ccc(F)c(C(F)(F)F)c1 (stereo partly drawn) [Example 21, (2S,3R,7Z)-7-(cyclopropylmethyli-dene)-3-[5-({2,4-dioxo-1,3-diazaspiro[4.4]nonan-3-yl}methyl)-2-methoxybenzamido]-N-[4-fluoro-3-(trifluoromethyl)phe-nyl]bicyclo[2.2.1]hept-ane-2-carboxamide] | 330
COc1ccc(C(O)C(F)(F)F)cc1C(=O)NC1C2CCC(/C2=C/C(F)(F)F)[C@@H]1C(=O)Nc1ccc(F)c(C(F)(F)F)c1 (single isomer, unassigned) [Example 6] | 1240
COc1ccc(CCCCCOC(=O)NC2CCC2)cc1C(=O)N[C@@H]1C2CCC(/C2=C/C(F)(F)F)[C@@H]1C(=O)Nc1ccc(F)c(C(F)(F)F)c1 (stereo partly drawn) [Example 103, 5-(3-{[(2R,3S,7Z)-3-{[4-fluoro-3-(trifluoromethyl)phe-nyl]carbamoyl}-7-(2,2,2-trifluoroethylidene)bi-cyclo[2.2.1]heptan-2-yl]carbamoyl}-4-methoxyphenyl)pent-yl N-cyclobutylcarbamate] | 725
COc1ccc(CCC(C)(C)O)cc1C(=O)NC1C2CCC(/C2=C/CC(F)F)[C@@H]1C(=O)Nc1ccc(F)c(C(F)(F)F)c1 (stereo partly shown) [Example 175, (7Z)-7-(3,3-difluoropropylidene)-N-[4-fluoro-3-(trifluoromethyl)phe-nyl]-3-[5-(3-hydroxy-3-methylbutyl)-2-methoxybenzamido] bicyclo[2.2.1]heptane-2-carboxamide] | 311
COc1ccc(CCC(=O)NCC(F)(F)F)cc1C(=O)NC1C2CCC(/C2=C/C(F)(F)F)[C@@H]1C(=O)Nc1ccc(F)c(C(F)(F)F)c1 (stereo partly drawn) [Example 141, (2S,3R,7Z)-N-[4-fluoro-3-(trifluoromethyl)phe-nyl]-3-(2-methoxy-5-{2-[(2,2,2-trifluoroethyl)carba-moyl]ethyl}benzami-do)-7-(2,2,2-trifluoroethylidene)bi-cyclo[2.2.1]heptane-2-carboxamide] | 829
COc1ccc(C(=O)NC(C)(C)CO)cc1C(=O)N[C@H]1[C@@H](C(=O)Nc2ccc(F)c(C(F)(F)F)c2)[C@H]2CC[C@@H]1/C2=C\C1CC1 [Example 239, N3-[(1R,2R,3S,4R,7Z)-7-(cyclopropyl-methylidene)-3-{[4-fluoro-3-(trifluoromethyl)phenyl]carbamoyl}bicyclo[2.2.1]heptan-2-yl]-N1-(1-hydroxy-2-methylpropan-2-yl)-4-methoxybenzene-1,3-dicarboxamide] | 27.8
COCc1ncn(Cc2ccc(OC)c(C(=O)N[C@H]3[C@@H](C(=O)Nc4ccc(F)c(C(F)(F)F)c4)[C@H]4CC[C@@H]3/C4=C\C3CC3)c2)n1 [Example 296, (1R,2S,3R,4R,7Z)-7-(cyclopropyl-methylidene)-N-[4-fluoro-3-(trifluoromethyl)phenyl]-3-(2-methoxy-5-{[3-(methoxymethyl)-1H-1,2,4-triazol-1-yl]methyl}benzamido) bicyclo[2.2.1] heptane-2-carboxamide] | 107
COc1ccc(C2CCCCC2O)cc1C(=O)N[C@@H]1C2CCC(/C2=C/C(F)(F)F)[C@@H]1C(=O)Nc1ccc(F)c(C(F)(F)F)c1 (single isomer, unassigned) [Example 57] | 1440
COc1ccc(C(=O)N2CCCC(CO)C2)cc1C(=O)N[C@H]1[C@@H](C(=O)Nc2ccc(F)c(C(F)(F)F)c2)[C@H]2CC[C@@H]1/C2=C\C1CC1 (stereo partly drawn) [Example 234, (1R,2S,3R,4R,7Z)-7-(cyclopropyl-methylidene)-N-[4-fluoro-3-(trifluoromethyl)phenyl]-3-{5-[3-(hydroxymethyl)piperidine-1-carbonyl]-2-methoxybenzamido} bicyclo[2.2.1]heptane-2-carboxamide] | 64.8
COc1ccc(C(=O)N2CCC(S(C)(=O)=O)C2)cc1C(=O)N[C@H]1[C@@H](C(=O)Nc2ccc(F)c(C(F)(F)F)c2)[C@H]2CC[C@@H]1/C2=C\C1CC1 (stereo partly drawn) [Example 252, (1R,2S,3R,4R,7Z)-7-(cyclopropyl-methylidene)-N-[4-fluoro-(trifluoromethyl)phenyl]-3-[5-(3-methanesulfonyl-pyrrolidine-1-carbonyl)-2-methoxybenzamido] bicyclo[2.2.1] heptane-2-carboxamide] | 4.16
